In the supplement of paper PMC11061612:

Columns and labels:
[1] = test system: NCI-H1838 (Lung Adenocarcinoma); experiment: Bliss excess, mean over the matrix (fraction); higher = more synergy
Procedure, shortened: (§1)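 Cell lines in DMEM/F12 or RPMI with 10% FBS were plated in 1536-well plates, held 24 hours at 37°C, 5% CO2, then given two-drug dose matrices for 72 hours (DMSO typically 0.2%). Viability was read by CellTiter-Glo 2.0 luminescence and scaled as inhibition from 0 (vehicle wells) to 1 (blank wells). Combination Emax is the second-highest inhibition in the matrix; Bliss excess is observed combination effect minus expected EA + EB − EA·EB, EA and EB being single-agent effects.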

[2] = test system: G-401 (Other Solid Carcinomas); experiment: as above
Procedure, shortened: as §1

[3] = test system: NCI-H650 (Lung Adenocarcinoma); experiment: as above
Procedure, shortened: as §1

[4] = test system: HCC1937 (Breast Carcinoma); experiment: as above
Procedure, shortened: as §1

Hey (Ovarian Carcinoma) [5] = experiment: as above
Procedure, shortened: as §1

[6] = test system: CADO-ES1 (Ewing's Sarcoma); experiment: as above
Procedure, shortened: as §1

[7] = test system: HCC1500 (Breast Carcinoma); experiment: as above
Procedure, shortened: as §1

[8] = test system: ALL-SIL (T-Lymphoblastic Leukemia); experiment: as above
Procedure, shortened: as §1

[9] = test system: NCI-H1092 (Small Cell Lung Carcinoma); experiment: as above
Procedure, shortened: as §1

[10] = test system: NCI-H2122 (Lung Adenocarcinoma); experiment: as above
Procedure, shortened: as §1

[11] = test system: LC-1-sq (Squamous Cell Lung Carcinoma); experiment: as above
Procedure, shortened: as §1

[12] = test system: OACM5-1 (Esophageal Adenocarcinoma); experiment: as above
Procedure, shortened: as §1

[13] = test system: EJM (Plasma Cell Myeloma); experiment: as above
Procedure, shortened: as §1

[14] = test system: HCC2998 (Colorectal Carcinoma); experiment: as above
Procedure, shortened: as §1

EW-1 (Ewing's Sarcoma) [15] = experiment: as above
Procedure, shortened: as §1

[16] = test system: KOPN-8 (B-Lymphoblastic Leukemia); experiment: as above
Procedure, shortened: as §1

[17] = test system: NCI-H1838 (Lung Adenocarcinoma); experiment: combination Emax (second highest fraction inhibited in the dose matrix, 72 h); higher = more inhibition; extreme values may be limits of the assay
Procedure, shortened: as §1

[18] = test system: G-401 (Other Solid Carcinomas); experiment: as above
Procedure, shortened: as §1

[19] = test system: NCI-H650 (Lung Adenocarcinoma); experiment: as above
Procedure, shortened: as §1

[20] = test system: HCC1937 (Breast Carcinoma); experiment: as above
Procedure, shortened: as §1

Hey (Ovarian Carcinoma) [21] = experiment: as above
Procedure, shortened: as §1

[22] = test system: CADO-ES1 (Ewing's Sarcoma); experiment: as above
Procedure, shortened: as §1

[23] = test system: HCC1500 (Breast Carcinoma); experiment: as above
Procedure, shortened: as §1

[24] = test system: ALL-SIL (T-Lymphoblastic Leukemia); experiment: as above
Procedure, shortened: as §1

[25] = test system: NCI-H1092 (Small Cell Lung Carcinoma); experiment: as above
Procedure, shortened: as §1

[26] = test system: NCI-H2122 (Lung Adenocarcinoma); experiment: as above
Procedure, shortened: as §1

[27] = test system: LC-1-sq (Squamous Cell Lung Carcinoma); experiment: as above
Procedure, shortened: as §1

[28] = test system: OACM5-1 (Esophageal Adenocarcinoma); experiment: as above
Procedure, shortened: as §1

[29] = test system: EJM (Plasma Cell Myeloma); experiment: as above
Procedure, shortened: as §1

[30] = test system: HCC2998 (Colorectal Carcinoma); experiment: as above
Procedure, shortened: as §1

EW-1 (Ewing's Sarcoma) [31] = experiment: as above
Procedure, shortened: as §1

[32] = test system: KOPN-8 (B-Lymphoblastic Leukemia); experiment: as above
Procedure, shortened: as §1
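For Bliss excess, mean over the matrix in this document: after 72 h of two-drug dosing.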

| SMILES | Bliss excess [1] | Bliss excess [2] | Bliss excess [3] | Bliss excess [4] | Bliss excess (Hey (Ovarian Carcinoma) [5]) | Bliss excess [6] | Bliss excess [7] | Bliss excess [8] | Bliss excess [9] | Bliss excess [10] | Bliss excess [11] | Bliss excess [12] | Bliss excess [13] | Bliss excess [14] | Bliss excess (EW-1 (Ewing's Sarcoma) [15]) | Bliss excess [16] | combination Emax [17] | combination Emax [18] | combination Emax [19] | combination Emax [20] | combination Emax (Hey (Ovarian Carcinoma) [21]) | combination Emax [22] | combination Emax [23] | combination Emax [24] | combination Emax [25] | combination Emax [26] | combination Emax [27] | combination Emax [28] | combination Emax [29] | combination Emax [30] | combination Emax (EW-1 (Ewing's Sarcoma) [31]) | combination Emax [32] |
| --- | --- | --- | --- | --- | --- | --- | --- | --- | --- | --- | --- | --- | --- | --- | --- | --- | --- | --- | --- | --- | --- | --- | --- | --- | --- | --- | --- | --- | --- | --- | --- | --- |
| CC(=O)c1c(C)c2cnc(Nc3ccc(N4CCNCC4)cn3)nc2n(C2CCCC2)c1=O [Palbociclib] + CN(CC[C@H](CSC1=CC=CC=C1)NC2=C(C=C(C=C2)S(=O)(=O)NC(=O)C3=CC=C(C=C3)N4CCC(CC4)[C@H](C5=CC=CC=C5C6=CC=C(C=C6)Cl)O)S(=O)(=O)C(F)(F)F)CCO [AZD4320] (first compound max 10 µM, 7x7, partner max 1 µM) | -0.0748 | 0.0091 | -0.088 | -0.0676 | -0.105 | -0.149 | -0.0551 | -0.0064 | -0.0197 | -0.0482 | -0.0469 | 0.0021 | -0.0016 | -0.0452 | -0.0009 | 0.0277 | 0.348 | 0.974 | 0.172 | 0.504 | 0.357 | 0.76 | 0.985 | 1 | 0.915 | 0.684 | 0.224 | 0.61 | 0.56 | 0.934 | 0.884 | 1 |
| C[C@@H](c1ccc2nccn2c1)n1nnc2ncc(-c3cnn(C)c3)nc21 [Savolitinib] + CN(CC[C@H](CSC1=CC=CC=C1)NC2=C(C=C(C=C2)S(=O)(=O)NC(=O)C3=CC=C(C=C3)N4CCC(CC4)[C@H](C5=CC=CC=C5C6=CC=C(C=C6)Cl)O)S(=O)(=O)C(F)(F)F)CCO [AZD4320] (first compound max 1 µM, 7x7, partner max 1 µM) | -0.01 | -0.0486 | -0.0723 | -0.0666 | -0.0466 | 0.0075 | -0.0104 | -0.0135 | -0.0878 | -0.0092 | -0.059 | -0.0435 | 0.0389 | -0.0901 | -0.0384 | 0.111 | 0.205 | 0.276 | 0.181 | 0.319 | 0.125 | 0.706 | 0.998 | 1 | 0.857 | 0.252 | 0.309 | 0.216 | 0.278 | 0.511 | 0.574 | 0.967 |
| COc1nnc2ccc(N3CCC(c4ccc(OCCN5CCN(C)C(=O)[C@H]5C)cc4)CC3)nn12 [AZD5153] + CN(CC[C@H](CSC1=CC=CC=C1)NC2=C(C=C(C=C2)S(=O)(=O)NC(=O)C3=CC=C(C=C3)N4CCC(CC4)[C@H](C5=CC=CC=C5C6=CC=C(C=C6)Cl)O)S(=O)(=O)C(F)(F)F)CCO [AZD4320] (first compound max 1 µM, 7x7, partner max 1 µM) | -0.0272 | -0.026 | 0.0209 | 0.0178 | 0.0787 | -0.0641 | -0.0002 | 0.0324 | 0.0381 | -0.0537 | 0.0178 | 0.0552 | 0.106 | -0.0002 | 0.0591 | 0.0349 | 0.194 | 0.806 | 0.512 | 0.396 | 0.562 | 0.618 | 0.983 | 1 | 0.924 | 0.759 | 0.715 | 0.698 | 0.824 | 0.967 | 0.718 | 1 |
